These results are taken from US11226337B2, “Chemoproteomic profiling of protein electrophilic and oxidative post-translational modifications” (Zenagem, LLC, priority 2017, dated 2022).

The subject of assay [1] is Uncharacterized protein (H7C469). Put plainly: SILAC RP-ABPP. The assay is classed as cell-based, human. Particulars: SILAC H/L. As for the experimental part:
For MS-based experiments, labelling was performed in a similar manner as described above in Example 2, maintaining the same concentrations of probes. Modifications to this protocol included using isotopically ‘light’ and ‘heavy’ SILAC cells that were also grown to near complete confluence prior to treatment. Isotopically light cells were treated with the non-clickable hydrazine probe (at the same concentration as the probe in ‘enrichment’ experiments) or the probe in the presence of 10-fold excess non-clickable hydrazine probe as a competitor (in ‘competition’ experiments). Isotopically heavy cells were treated with the probe for both types of experiments. These treatments were performed in non-SILAC media. Following treatments, cells were washed with cold PBS to remove the probe-containing media, harvested by scraping, collected by centrifugation (1,400 g, 3 min, 4° C.), washed again by resuspension in cold PBS and frozen as pellets at −80° C. until use. […]
Heavy and light parent ion chromatograms associated with successfully identified peptides were extracted and compared using CIMAGE software as previously described^69. […] To ensure that the correct pair of peaks is quantified, chromatograms are extracted within a 10 ppm error tolerance of the predicted m/z, the signal-to-noise ratio must be >2.5 and the ‘co-elution correlation score’ and ‘envelope correlation score’ must have R^2 values ≥0.8. In addition, peptides detected as ‘singletons,’ where only the heavy ion of a peptide pair was identified, but for which passed all other filtering parameters, are given a default assigned ratio of ‘20,’ which is defined as any measured ratio that is ≥20.
To further eliminate false positives and any stochastic variability in the data, protein ratios were then determined by the median peptide ratio derived from three or more unique quantified peptides. […] Most importantly, there are no robustly measured ratios for proteins identified as probe 1 targets that had measured ratios of ˜1 with probe 2. […]

Assay [2] deals with HEK293T cells. Kind of assay: gel-based in situ probe labelling (rhodamine-azide, in-gel fluorescence). The assay is classed as cell-based, human. To be noted: soluble and membrane proteomes, 30 minutes. As for the experimental part:
For gel-based experiments, cells were plated and grown to near complete confluence at the time of treatment. Cells were washed with cold phosphate buffered saline (PBS, pH 7.4) and replenished with serum-free DMEM (˜15% of normal passage volume, e.g. a 10 cm plate normally passaged with 10 mL media received 1.5 mL) supplemented with 10 mM Na-HEPES buffer (pH 7.5). Unless otherwise indicated, cells were incubated with probes (3 mM and 1 mM for probes 1 and 2, respectively) in the absence or presence of 10-fold excess non-clickable competitor probes (30 mM and 10 mM for 3 and 4, respectively) for 0.5 hour at 37° C. When applicable, probe and competitor were premixed before co-administering to the cells.
The cells were lysed, and the cell proteomes were conjugated to a rhodamine-azide (Rh—N3) reporter tag.
Soluble proteomes from treated cells were diluted to 1 mg/mL. To each sample (50 μL), a freshly prepared “click” or CuAAC reagent mixture (6 μL) containing 0.1 mM tris(benzyltriazolylmethyl)amine (TBTA) (3 μL/sample, 1.7 mM in 4:1 DMSO:t-BuOH), 1 mM CuSO4 (1 μL/sample, 50 mM in H2O), 25 μM azide-rhodamine (1 μL/sample, 1.25 mM in DMSO), and freshly prepared 1 mM tris(2-carboxyethyl)phosphine (TCEP) (1 μL/sample, 50 mM in PBS or H2O) was added to conjugate the fluorophore to probe-labelled proteins. TBTA was purchased from TCI and azide-rhodamine was synthesized as previously described^64. Upon addition of the click mixture, each reaction was immediately mixed by vortexing and then allowed to react at ambient temperature for 1 hour before quenching the reactions with SDS loading buffer (4× stock, 17 μL). Proteins (˜25 μg total protein loaded per gel lane) were resolved by SDS-PAGE (10% acrylamide) and visualized by in-gel fluorescence scanning on a Hitachi FMBIO-II or BioRad ChemiDoc MP flatbed fluorescence scanner.

For assay [3], the target named is T1, AMD1 (Homo sapiens, UniProt P17707).
T1 construct: Full-length genes encoding three probe 1- and one probe 2-targeted proteins were amplified from a cDNA library; expressed in transfected cells; host or cells: HEK293T
T1 sequence (P17707 68-334 limits assumed): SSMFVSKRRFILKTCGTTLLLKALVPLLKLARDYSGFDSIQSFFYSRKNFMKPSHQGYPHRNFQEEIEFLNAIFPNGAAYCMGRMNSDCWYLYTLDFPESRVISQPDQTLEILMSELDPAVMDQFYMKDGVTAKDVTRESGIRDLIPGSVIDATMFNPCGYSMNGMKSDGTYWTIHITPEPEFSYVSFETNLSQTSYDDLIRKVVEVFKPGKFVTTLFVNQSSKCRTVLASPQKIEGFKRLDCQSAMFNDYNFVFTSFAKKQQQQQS
T1 sequence (P17707 1-67 limits assumed): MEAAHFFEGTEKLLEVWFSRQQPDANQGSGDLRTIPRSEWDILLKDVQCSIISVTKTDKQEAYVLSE
Kind of assay: gel-based RP-ABPP of transfected HEK293T cells. The assay is classed as cell-based. To be noted: transfected HEK293T cells vs mock.
Description: Soluble proteomes from treated cells were diluted to 1 mg/mL. To each sample (50 μL), a freshly prepared “click” or CuAAC reagent mixture (6 μL) containing 0.1 mM tris(benzyltriazolylmethyl)amine (TBTA) (3 μL/sample, 1.7 mM in 4:1 DMSO:t-BuOH), 1 mM CuSO4 (1 μL/sample, 50 mM in H2O), 25 μM azide-rhodamine (1 μL/sample, 1.25 mM in DMSO), and freshly prepared 1 mM tris(2-carboxyethyl)phosphine (TCEP) (1 μL/sample, 50 mM in PBS or H2O) was added to conjugate the fluorophore to probe-labelled proteins. […] Upon addition of the click mixture, each reaction was immediately mixed by vortexing and then allowed to react at ambient temperature for 1 hour before quenching the reactions with SDS loading buffer (4× stock, 17 μL). Proteins (˜25 μg total protein loaded per gel lane) were resolved by SDS-PAGE (10% acrylamide) and visualized by in-gel fluorescence scanning on a Hitachi FMBIO-II or BioRad ChemiDoc MP flatbed fluorescence scanner. […]
After scanning fluorescence, that same gel was transferred to nitrocellulose membrane in Towbin buffer, the membrane was blocked for ˜1 hour at ambient temperature with 5% nonfat dry milk (w/v) in Tris-buffered saline with Tween 20 (TBST) and incubated with primary antibodies in the same solution overnight at 4° C. […]

Structures are written as SMILES.

Turning to `C#CCCNC(=O)c1ccc(NN)cc1.Cl` [probe 2, N-(but-3-yn-1-yl)-4-hydrazinylbenzamide hydrochloride], the enrichment ratioavg in assay [1] (probe 2 1 mM 0.5 h vs probe 4, MDA-MB-231) was found to be 14. In assay [1] (probe 2 vs probe 2+10x probe 4, MDA-MB-231), the competition ratioavg is given as 5. Moreover, the “protein labeling, in-gel fluorescence” value in assay [2] is recorded as “Concentration-dependent protein labeling”. Further, the “probe labeling of recombinant protein, in-gel fluorescence” value in assay [3] was “reacted with both probes 1 and 2”.
`C#CCNN.Cl` [probe 1, prop-2-yn-1-ylhydrazine hydrochloride] displayed a competition ratioavg in assay [1] (probe 1 vs probe 1+10x probe 3, cell line not given) of 2. For the same compound, the “protein labeling, in-gel fluorescence” value in assay [2] (hydrochloride) is on record as “Concentration-dependent protein labeling”. Further, the “probe labeling of recombinant protein, in-gel fluorescence” value in assay [3] is “reacted with both probes 1 and 2”.
